These results are taken from US9493460B2, “Diimide compounds” (UCL BUSINESS PLC, priority 2013, dated 2016).

“Also recorded” adds a separate entry of the source.

The IC50 is the concentration at which inhibition is half-maximal.

Assay [1] relates to Mia-PaCa2 cells. As to the kind of experiment: Senescence β-galactosidase staining. The class given is cell-based, human. Particulars: 7 days treatment. How it is done:
FIG. 4. Micrographs showing the results of staining for evidence of cellular senescence in MiaPaCa2 cells using the β-galactosidase assay. Senescent cells are coloured blue in this procedure. Staining was performed after seven days treatments with (a) vehicle control, ×100 magnification, (b) 3.3 nM of compound 3d, ×200 magnification, (c) 6.6 nM of compound 3d, ×200 magnification, (d) 50 nM of compound 4, ×200 magnification, (e) plot of the percentage of senescent cells at the indicated concentrations of compounds 3d and 4, compared to the background senescence in this cell line (with vehicle control only). Cell counts were performed in triplicate and error bars represent estimated standard deviations.
Senescence detection and quantification experiments were carried out using the Senescence β-galactosidase staining kit (Cell Signalling Technology, MA, USA) according to the manufacturer's protocol. Briefly, 1×10^5 cells were seeded in 6-well plates in 2 ml of medium supplemented with the test compound and incubated for 24 h. Cells were washed (2 ml PBS), fixed (2% formaldehyde and 2% glutaraldehyde in PBS, 15 min, room temperature) and washed (2×2 ml PBS) before staining overnight. Senescent cells, detected by their blue pigmentation, were counted using a light microscope.
CDKN1A encodes the cyclin-dependent kinase p21WAF1 that induces replicative senescence, which is a well-studied consequence of telomerase inhibition and telomere maintenance disruption. […] Compounds 3b and 3d behaved in a similar manner to each other, with concentrations of 3-4 nM being sufficient to result in ˜50-60% of cells becoming senescent after this time-course.

Assay [2] relates to human telomeric G-quadruplex DNA (F21T). Kind of assay: FRET melting assay, human telomeric quadruplex. The class given is binding. As to conditions: for telomeric quadruplex stabilization (in words): FRET melting. The source says: (§1) The ability of the naphthalene diimide compounds to stabilize DNA sequences was investigated using a fluorescence resonance energy transfer (FRET) assay modified to be used as a high-throughput screen in a 96-well format. Several quadruplex sequences were studied (the human telomeric G-quadruplex DNA sequence 5′-FAM-d(GGG[TTAGGG]3)-TAMRA-3′ and the duplex sequence 5′-FAM-dTATAGCTATA-HEG-TATAGCTATA-TAMRA-3′ (HEG linker: [(—CH2—CH2—O—)6])), as well as two overlapping sequences from the HSP90 promoter region (HSP90a and HSP90b):
(§2) The labelled oligonucleotides have attached to them the donor fluorophore FAM: 6-carboxyfluorescein and the acceptor fluorophore TAMRA: 6-carboxytetramethylrhodamine. The FRET probe sequences were diluted from stock to the correct concentration (400 nM) in a 60 mM potassium cacodylate buffer (pH 7.4) and then annealed by heating to 85° C. for 10 min, followed by cooling to room temperature in the heating block. The compound was stored as a 10 mM stock solution in DMSO; final solutions (at 2×concentration) were prepared using 10 mM HCl in the initial 1:10 dilution, after which 60 mM potassium cacodylate buffer (pH 7.4) was used in all subsequent steps. The maximum HCl concentration in the reaction volume (at a ligand concentration of 20 μM) is thus 200 μM, well within the range of the buffer used. Relevant controls were also performed to check for interference with the assay. 96-Well plates (MJ Research, Waltham, Mass.) were prepared by aliquoting 50 μl of the annealed DNA into each well, followed by 50 μl of the compound solutions. Measurements were made on a DNA Engine Opticon (MJ Research) with excitation at 450-495 nm and detection at 515-545 nm. Fluorescence readings were taken at intervals of 0.5° C. in the range 30-100° C., with a constant temperature being maintained for 30 s prior to each reading to ensure a stable value. Final analysis of the data was carried out using a script written in the program Origin 7.0 (OriginLab Corp., Northampton, Mass.). The advanced curve-fitting function in Origin 7.0 was used for calculation of ΔTm values. All determinations were performed in triplicate or better. Esds in ΔTm are ±0.1° C.
The ability of compounds 3a-h to stabilize a human telomeric quadruplex was assessed by a high-throughput FRET (Fluorescence Resonance Energy Transfer) melting technique. […] None of the furan tetrahydrofuran, pyranose or acyclic ether compounds has any effect on quadruplex or duplex stability.
(§3) The T-loop sequence represents duplex DNA.

Assay [3] has as its system panel of cancer cell lines. Kind of assay: SRB assay, panel of cancer cell lines and normal fibroblast line. The class given is cell-based, human. Particulars: 96 h exposure; for IC50: Homo sapiens, Fibroblast, read-out: IC50 values across the cell line panel. How it is done: (§4) Human cancer cell lines, MCF7 (breast), A549 (lung), Mia-PaCa2, PANC1 and HPAC (pancreatic), RCC4 and 786-0 renal, and the somatic human cell line WI-38 (lung fibroblast) were purchased from ATCC. Cell lines were maintained in appropriate medium supplemented with 10% foetal bovine serum (Invitrogen, UK), 2 mM L-glutamine (Invitrogen, Netherlands), and other components as specified by the suppliers. Cell lines were maintained at 37° C., 5% CO2 and routinely passaged. Drugs were dissolved in DMSO and filtered through 0.22 μm pore-size filter units before addition to cell line appropriate media. Cellular growth inhibition was measured using the sulforhodamine B (SRB) assay in 96 well plates as described previously.^1,2 Fifty percent inhibitory concentrations (IC50) were determined by taking the mean absorbance at 540 nm for each drug concentration expressed as a percentage of the absorbance of untreated control wells.
(§5) The anti-proliferative activity of the group of nine ND derivatives was assessed using the SRB assay following 96 h exposure to 2-fold serial dilutions of each compound (Table 2) in a panel of cancer cell lines together with a normal fibroblast line. […] In contrast the morpholine compounds all show sub-μM anti-proliferative activity in at least some of the cancer cell lines used and the two compounds 3d, 3h with n=3 —(CH2)n— linkers to the morpholine groups, show particularly potent activity in the Mia-PaCa2 and PANC1 pancreatic carcinoma and A549 lung adenocarcinoma cell lines (IC50 values of 10-20 nM).
On the technique in general: The SRB assay estimates cell density from bound dye.

Assay [4] has as its system RCC4 (renal) cells. Kind of assay: SRB growth inhibition assay, 96 hr exposure, RCC4. The class given is cell-based, human. How it is done: as §4, §5
(§6) Next a series of structural isomers were tested.

Assay [5] relates to 786-O (renal) cells. Kind of assay: SRB growth inhibition assay, 96 hr exposure, 786-O. The class given is cell-based, human. How it is done: as §4, §5, §6
The subject of assay [6] is MCF-7 (breast) cells. As to the kind of experiment: SRB growth inhibition assay, 96 hr exposure, MCF-7. The class given is cell-based, human. The procedure: as §4, §5, §6
Assay [7] deals with MiaPaCa2 (pancreatic) cells. Kind of assay: SRB growth inhibition assay, MiaPaCa2. The class given is cell-based, human. Particulars: SRB assay, 96 hr exposure. The procedure: as §4, §5
Dose-response curves were used to guide the choice of compound concentration and time-points for the array experiments (FIG. 2a). […] To explore this response continuum the transcriptional signature of cells exposed for 24 h to 20 nM, 40 nM, 80 nM concentrations of 3d, or solvent alone as control, was analysed as described in Materials and Methods.
as §6

Assay [8] concerns A549 (lung) cells. As to the kind of experiment: SRB growth inhibition assay, 96 hr exposure, A549. Particulars: 96 hr exposure. The class given is cell-based, human. How it is done:
as §4, §5, §6

The subject of assay [9] is Panc1 (pancreatic) cells. As to the kind of experiment: SRB growth inhibition assay, 96 hr exposure, Panc1. The class given is cell-based, human. Particulars: 96 hr exposure. How it is done: as §4, §5, §6
The test system of assay [10] is WI38 normal human fibroblast cells. As to the kind of experiment: SRB growth inhibition assay, 96 hr exposure, WI38. The class given is cell-based. The procedure:
as §4
as §5, with “nM). […]” for “nM).”

The test system of assay [11] is HSP90a promoter quadruplex sequence. As to the kind of experiment: FRET melting assay, Hsp90A quadruplex. The class given is binding.
From the text: as §1
as §2, with “±0.1° C. […]” for “±0.1° C.”

Assay [12] relates to HSP90b promoter quadruplex sequence. Kind of assay: FRET melting assay, Hsp90B quadruplex. The class given is binding.
From the text: as §1
as §2, with “±0.1° C. […]” for “±0.1° C.”

Assay [13] concerns duplex DNA (T-loop). Kind of assay: FRET melting assay, duplex DNA. The class given is binding.
From the text: as §1, §2, §3

Regarding `CN1CCN(CCCNc2cc3c4c(c(NCCCN5CCN(C)CC5)cc5c4c2C(=O)N(CCCN2CCN(C)CC2)C5=O)C(=O)N(CCCN2CCN(C)CC2)C3=O)CC1` [Compound 4, reference compound], the “induction of senescence (in words)” value in [1] was “strong induction of senescence”.

In the case of `COCCCN1C(=O)c2cc(NCCCN3CCN(C)CC3)c3c4c(cc(NCCCN5CCN(C)CC5)c(c24)C1=O)C(=O)N(CCCOC)C3=O` [Compound 3e, 2,7-bis(3-methoxypropyl)-4,9-bis((3-(4-methylpiperazin-1-yl)propyl)amino)benzo[lmn][3,8]phenanthroline-1,3,6,8(2H,7H)-tetraone], the “telomeric quadruplex stabilization (in words)” value in assay [2] is reported as “very slight effect; also recorded: low level of quadruplex binding”. For the same compound, in [3], the IC50 was in the range of 1000 to 8000 nM.

Regarding `CN1CCN(CCCN2C(=O)c3cc(NCCCN4CCOCC4)c4c5c(cc(NCCCN6CCOCC6)c(c35)C2=O)C(=O)N(CCCN2CCN(C)CC2)C4=O)CC1` [SKM029], the IC50 in assay [4] stood at 610 ± 70 nM; in [5] (SRB assay, 96 hr exposure), 440 ± 70 nM; in assay [6], 14 ± 1 nM; in [7], 50 ± 2 nM; in assay [8] it was 7 ± 1 nM; in [9], 2 ± 1 nM. Besides, the IC50 in assay [10] turned out to be 300 ± 23 nM. Moreover, the “change in melting temperature F21T 1 uM” value in assay [2] (1 uM ligand) came to 29. Further, the “change in melting temperature F21T 2 uM” value in assay [2] (2 uM ligand) was determined as 34. The “change in melting temperature Hsp90A 1 uM” value in assay [11] (1 uM ligand) is on record as 34. In assay [11] (2 uM ligand), the “change in melting temperature Hsp90A 2 uM” value was found to be 36. Also, the “change in melting temperature Hsp90B 1 uM” value in [12] (1 uM ligand) worked out at 30. In addition, in assay [12] (2 uM ligand), the “change in melting temperature Hsp90B 2 uM” value is listed as 34. Moreover, the “change in melting temperature Tloop 1 uM” value in assay [13] (1 uM ligand) is on record as 5. In addition, the “change in melting temperature Tloop 2 uM” value in assay [13] (2 uM ligand) was 9.

For the compound `CN1CCN(CCCNc2cc3c4c(c(NCCCN5CCN(C)CC5)cc5c4c2C(=O)N(Cc2ccco2)C5=O)C(=O)N(Cc2ccco2)C3=O)CC1` [Compound 3b, 2,7-bis(furan-2-ylmethyl)-4,9-bis((3-(4-methylpiperazin-1-yl)propyl)amino)benzo[lmn][3,8]phenanthroline-1,3,6,8(2H,7H)-tetraone], the “telomeric quadruplex stabilization (in words)” value in [2] was “low level of quadruplex binding”. In addition, in assay [3], the IC50 was 1000 to 8000 nM.

For `CN1CCN(CCCNc2cc3c4c(c(NCCCN5CCN(C)CC5)cc5c4c2C(=O)N(CC2CCCO2)C5=O)C(=O)N(CC2CCCO2)C3=O)CC1` (racemic) [Compound 3a, 4,9-bis((3-(4-methylpiperazin-1-yl)propyl)amino)-2,7-bis((tetrahydrofuran-2-yl)methyl)benzo[lmn][3,8]phenanthroline-1,3,6,8(2H,7H)-tetraone], in assay [3], the “anti-proliferative activity (in words)” value is “devoid of significant anti-proliferative activity in all except the Mia-PaCa2 and A549 lines”.

Take `CN1CCN(CCCNc2cc3c4c(c(NCCCN5CCN(C)CC5)cc5c4c2C(=O)N(CC2CCOCC2)C5=O)C(=O)N(CC2CCOCC2)C3=O)CC1` [Compound 3c, 4,9-bis((3-(4-methylpiperazin-1-yl)propyl)amino)-2,7-bis((tetrahydro-2H-pyran-4-yl)methyl)benzo[lmn][3,8]phenanthroline-1,3,6,8(2H,7H)-tetraone]: the “selectivity for the renal carcinoma cell line 786-0” value in assay [5] (versus other lines of the panel) is “up to 10 fold”. In addition, the “telomeric quadruplex stabilization (in words)” value in assay [2] is “low level of quadruplex binding”. Also, the IC50 in assay [3] was 1000 to 8000 nM.
